The target in assay [1] is T1, full-length proMMP9(1-707) (SEQ ID NO:1), activation by catalytic MMP3 (Homo sapiens, UniProt P14780, R574P).
T1 construct: made in house; host or cells: HEK293 (proMMP9, secreted); E. coli (MMP3)
Briefly: proMMP9/MMP3 P126 Activation Assay. The assay is classed as biochemical. How it is done: proMMP9/MMP3 P126 Activation Assay
The reaction volume was 50 μL. […] Reactivity of residual MMP3 towards P-126 substrate was minimal under these conditions.

In assay [2] the target is T2, proMMP9(20-445;ΔFnII) (SEQ ID NO:6) (Homo sapiens, UniProt P14780, DEL216-390).
T2 construct: start methionine (N); made in house; host or cells: E. coli BL21(DE3) RIL
T2 sequence (P14780 with tags, fused parts or gaps DEL216-390): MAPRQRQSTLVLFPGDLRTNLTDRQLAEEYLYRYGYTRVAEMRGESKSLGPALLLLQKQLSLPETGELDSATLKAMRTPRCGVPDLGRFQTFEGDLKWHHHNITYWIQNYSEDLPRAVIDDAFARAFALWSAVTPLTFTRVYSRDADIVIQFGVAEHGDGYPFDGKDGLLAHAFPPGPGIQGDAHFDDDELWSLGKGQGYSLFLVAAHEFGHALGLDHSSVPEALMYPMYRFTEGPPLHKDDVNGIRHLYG
Briefly: ThermoFluor binding assay with proMMP9(20-445;ΔFnII). How it is done: (§1) The ThermoFluor® (TF) assay is a 384-well plate-based binding assay that measures thermal stability of proteins (Biomol Screen 2001, 6, 429-40; Biochemistry 2005, 44, 5258-66). The experiments were carried out using instruments available from Johnson & Johnson Pharmaceutical Research & Development, LLC. TF dye used in all experiments was […] (1,8-ANS) (Invitrogen: A-47).
(§2) Compounds were arranged in a pre-dispensed plate (Greiner Bio-one: 781280), wherein compounds were serially diluted in 100% DMSO across 11 columns within a series. Columns 12 and 24 were used as DMSO reference and contained no compound. For multiple compound concentration-response experiments, the compound aliquots ([…]) were robotically predispensed directly into black 384-well polypropylene PCR microplates (Abgene: TF-0384/k) using a Cartesian Hummingbird liquid handler (DigiLab, Holliston, Mass.). Following compound dispense, protein and dye solutions were added to achieve the final assay volume of 3 μL. The assay solutions were overlayed with 1 μL of silicone oil (Fluka, type DC 200: 85411) to prevent evaporation.
(§3) Assay plates were robotically loaded onto a thermostatically controlled PCR-type thermal block and then heated from 40 to 90° C. at a ramp-rate of 1° C./min for all experiments. Fluorescence was measured by continuous illumination with UV light (Hamamatsu LC6) supplied via fiber optics and filtered through a band-pass filter (380-400 nm; >60D cutoff). Fluorescence emission of the entire 384-well plate was detected by measuring light intensity using a CCD camera (Sensys, Roper Scientific) filtered to detect 500±25 nm, resulting in simultaneous and independent readings of all 384 wells. A single image with 20-sec exposure time was collected at each temperature, and the sum of the pixel intensity in a given area of the assay plate was recorded vs temperature and fit to standard equations to yield the Tm (J Biomol Screen 2001, 6, 429-40).
(§4) Thermodynamic parameters necessary for fitting compound binding for each proMMP were estimated by differential scanning calorimetry (DSC) and from ThermoFluor® data. The heat capacity of unfolding for each protein was estimated from the molecular weight and from ThermoFluor® dosing data.
ThermoFluor® with proMMP9(20-445;ΔFnII) (SEQ ID NO:6)
The protein sample preparations included a desalting buffer exchange step via a PD-10 gravity column (GE Healthcare). The desalting buffer exchange was performed prior to diluting the protein to the final assay concentration of 2.8 μM proMMP9(20-445;ΔFnII) (SEQ ID NO:6). The concentration of proMMP9(20-445;ΔFnII) (SEQ ID NO:6) was determined spectrophotometrically based on a calculated extinction coefficient of ε280=39880 M^−1cm^−1, a calculated molecular weight of 28.2 kDa, and calculated pI of 5.5. ThermoFluor® reference conditions were define as follows: 80 μg/mL (2.8 μM) proMMP9(20-445;ΔFnII) (SEQ ID NO:6), 50 μM 1,8-ANS, pH 7.0 Buffer (50 mM HEPES pH 7.0, 100 mM NaCl, 0.001% Tween-20, 2.5 mM MgCl2, 300 μM CaCl2). The thermodynamic parameters for proMMP9(20-445;ΔFnII) (SEQ ID NO:6) are as follows: Tm (° C.)=72 (+/−0.1), ΔUH(Tm) (cal mol^−1)=160000(+/−5000), ΔUS(Tm) (cal mol^−1 K^−1)=434, ΔUCp (cal mol^−1 K^−1)=2400.

Assay [3] deals with T3, proMMP9(67-444;ΔFnII) (SEQ ID NO:5) (Homo sapiens, UniProt P14780, DEL216-390).
T3 construct: start methionine (N); made in house; host or cells: E. coli BL21(DE3) RIL
T3 sequence (P14780 with tags, fused parts or gaps DEL216-390): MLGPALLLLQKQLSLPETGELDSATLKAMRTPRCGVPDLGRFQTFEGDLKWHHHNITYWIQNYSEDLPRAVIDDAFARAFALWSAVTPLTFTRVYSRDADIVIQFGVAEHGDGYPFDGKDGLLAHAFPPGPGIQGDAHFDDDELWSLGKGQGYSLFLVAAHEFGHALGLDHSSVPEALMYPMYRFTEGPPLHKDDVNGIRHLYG
Briefly: ThermoFluor binding assay with proMMP9(67-444;ΔFnII). The method, then:
as §1, §2, §3, §4
ThermoFluor® with proMMP9(67-444;ΔFnII) (SEQ ID NO:5)
The protein sample preparations had to include a desalting buffer exchange step via a PD-10 gravity column (GE Healthcare). The desalting buffer exchange was performed prior to diluting the protein to the final assay concentration of 3.5 μM proMMP9(67-444;ΔFnII) (SEQ ID NO:5). The concentration of proMMP9(67-444;ΔFnII) (SEQ ID NO:5) was determined spectrophotometrically based on a calculated extinction coefficient of ε280=33900 M^−1cm^−1, a calculated molecular weight of 22.6 kDa, and calculated pI of 5.20. ThermoFluor® reference conditions were defined as follows: 80 μg/mL (3.5 μM) proMMP9(67-444;ΔFnII) (SEQ ID NO:5), 50 μM 1,8-ANS, pH 7.0 Buffer (50 mM HEPES pH 7.0, 100 mM NaCl, 0.001% Tween-20, 2.5 mM MgCl2, 300 μM CaCl2). The thermodynamic parameters for proMMP9(67-444;ΔFnII) (SEQ ID NO:5) are as follows: Tm (° C.)=63 (+/−0.1), ΔUH(Tm) (cal mol^−1)=105000(+/−5000), ΔUS(Tm) (cal mol^−1 K^−1)=[…], ΔUCp (cal mol^−1 K^−1)=2000.

Counter-ions that a name gives are not always drawn.

Results on 16 molecules are retold here after US20120129843A1, “PYRIDYL-THIAZOLYL INHIBITORS OF PRO-MATRIX METALLOPROTEINASE ACTIVATION” (priority 2010, published 2012).

T1 sequence (P14780 20-707 R574P): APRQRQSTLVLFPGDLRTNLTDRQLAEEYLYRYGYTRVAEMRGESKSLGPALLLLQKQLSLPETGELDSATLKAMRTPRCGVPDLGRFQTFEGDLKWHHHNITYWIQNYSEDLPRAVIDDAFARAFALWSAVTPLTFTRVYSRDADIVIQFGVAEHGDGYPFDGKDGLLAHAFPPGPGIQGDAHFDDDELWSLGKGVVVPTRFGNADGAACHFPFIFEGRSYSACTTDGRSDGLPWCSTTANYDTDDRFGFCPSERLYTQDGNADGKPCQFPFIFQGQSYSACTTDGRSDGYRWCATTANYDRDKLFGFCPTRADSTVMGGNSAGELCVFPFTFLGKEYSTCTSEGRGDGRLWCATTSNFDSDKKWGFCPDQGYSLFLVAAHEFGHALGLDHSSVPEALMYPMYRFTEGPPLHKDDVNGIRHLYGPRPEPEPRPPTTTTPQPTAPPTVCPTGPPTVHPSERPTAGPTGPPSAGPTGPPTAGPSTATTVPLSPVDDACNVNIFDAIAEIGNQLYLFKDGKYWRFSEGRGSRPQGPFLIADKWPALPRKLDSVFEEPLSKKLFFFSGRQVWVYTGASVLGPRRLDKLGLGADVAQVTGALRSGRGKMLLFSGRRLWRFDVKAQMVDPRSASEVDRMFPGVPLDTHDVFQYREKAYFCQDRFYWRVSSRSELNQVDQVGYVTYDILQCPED

On to `CC(C)Oc1ccc(S(N)(=O)=O)cc1Nc1nc(-c2ccnc(N3CCN(C)CC3)c2)cs1` [Example 35, 4-Isopropoxy-3-{4-[2-(4-methyl-piperazin-1-yl)-pyridin-4-yl]-thiazol-2-ylamino}-benzenesulfonamide.TFA], for which half-maximal inhibition in assay [1] (IC50) required 110 nM. The values for the Kd in assay [2] and in assay [3] were 190 nM and 460 nM, respectively.

As to `CC(C)Oc1ccc(S(N)(=O)=O)cc1Nc1nc(-c2ccc(N3CCCN(C)CC3)nc2)cs1` [Example 40, 4-Isopropoxy-3-{4-[6-(4-methyl-[1,4]diazepan-1-yl)-pyridin-3-yl]-thiazol-2-ylamino}-benzenesulfonamideamide.TFA], the IC50 in assay [1] was 87 nM. In addition, the Kd in assay [2] was 44 nM; in assay [3], 330 nM.

In turn, `COc1ccc(C(N)=O)cc1Nc1nc(-c2ccc(N3CCN(C)CC3)nc2)cs1` [Example 32, 4-Methoxy-3-{4-[6-(4-methyl-piperazin-1-yl)-pyridin-3-yl]-thiazol-2-ylamino}-benzamide] yielded an IC50 in assay [1] of 840 nM. For the same molecule, the dissociation constant Kd in assay [2] was 360 nM; in assay [3], 2300 nM.

`NC(=O)c1ccc(OC(F)(F)F)c(Nc2nc(-c3ccnc(Cl)c3)cs2)c1` [Example 34, 3-[4-(2-Chloro-pyridin-4-yl)-thiazol-2-ylamino]-4-trifluoromethoxy-benzamide.TFA] came in with an IC50 in assay [1] of 1100 nM. In addition, the Kd is 180 nM in assay [2] and 1500 nM in assay [3].

As to `CCS(=O)(=O)c1ccc(OC)c(Nc2nc(-c3cccnc3)cs2)c1` [Example 11, (5-Ethanesulfonyl-2-methoxy-phenyl)-(4-pyridin-3-yl-thiazol-2-yl)-amine.TFA], the Kd in assay [2] was found to be 5900 nM; in assay [3], 16000 nM.

In turn, `CC(C)Oc1ccc(S(N)(=O)=O)cc1Nc1nc(-c2ccc(N3CCn4ccnc4C3)nc2)cs1` [Example 82, 3-((4-(6-(5,6-Dihydroimidazo[1,2-a]pyrazin-7(8H)-yl)pyridin-3-yl)thiazol-2-yl)amino)-4-isopropoxybenzenesulfonamide.TFA] showed an IC50 in assay [1] of 370 nM. For the same molecule, in assay [2], binding was put at a Kd of 99 nM.

`CC(C)Oc1ccc(S(N)(=O)=O)cc1Nc1nc(-c2ccc(N3CCNC(C)(C)C3)nc2)cs1` [Example 69, 3-((4-(6-(3,3-Dimethylpiperazin-1-yl)pyridin-3-yl)thiazol-2-yl)amino)-4-isopropoxybenzenesulfonamide.TFA] had a half-inhibitory concentration (IC50) in assay [1] of 100 nM. This molecule also had a Kd in assay [2] of 65 nM.

`CC(C)Oc1ccc(S(N)(=O)=O)cc1Nc1nc(-c2ccc(C3=CCNCC3)nc2)cs1` [Example 72, 4-Isopropoxy-3-((4-(1′,2′,3′,6′-tetrahydro-[2,4′-bipyridin]-5-yl)thiazol-2-yl)amino)benzenesulfonamide.TFA] yielded an IC50 in assay [1] of 140 nM. In assay [2], this molecule registered a Kd of 110 nM.

Molecule `CC(C)Oc1ccc(S(N)(=O)=O)cc1Nc1nc(-c2ccc(N3CCNC(C(F)(F)F)C3)nc2)cs1` (stereo not drawn) [Example 80, 4-Isopropoxy-3-((4-(6-(3-(trifluoromethyl)piperazin-1-yl)pyridin-3-yl)thiazol-2-yl)amino)benzenesulfonamide.TFA] registered an IC50 in assay [1] of 360 nM. The molecule further returned a dissociation constant Kd in assay [2] of 150 nM.

In the case of `CC(C)Oc1ccc(S(N)(=O)=O)cc1Nc1nc(-c2ccc(N3CCNC(C(N)=O)C3)nc2)cs1` (stereo not drawn) [Example 73, 4-(5-(2-((2-Isopropoxy-5-sulfamoylphenyl)amino)thiazol-4-yl)pyridin-2-yl)piperazine-2-carboxamide.TFA], in assay [1], the IC50 amounted to 210 nM. Besides, the equilibrium dissociation constant (Kd) in assay [2] turned out to be 120 nM.

Take `CC(C)Oc1ccc(S(N)(=O)=O)cc1Nc1nc(-c2ccc(C(=O)NC3CCN(C(C)C)CC3)nc2)cs1` [Example 88, 5-(2-((2-Isopropoxy-5-sulfamoylphenyl)amino)thiazol-4-yl)-N-(1-isopropylpiperidin-4-yl)picolinamide.TFA]: the IC50 in assay [1] is 330 nM. The molecule also showed a Kd in assay [2] of 260 nM.

In assay [1], `CC(C)Oc1ccc(S(N)(=O)=O)cc1Nc1nc(-c2ccc(C(=O)NC3CN4CCC3CC4)nc2)cs1` (stereo not drawn) [Example 86, 5-(2-((2-Isopropoxy-5-sulfamoylphenyl)amino)thiazol-4-yl)-N-(1-azabicyclo[2.2.2]octan-3-yl)picolinamide.TFA] registered an IC50 of 400 nM. The same molecule registered a dissociation constant Kd in assay [2] of 460 nM.

As for `CCN1CCC(NC(=O)c2ccc(-c3csc(Nc4cc(S(N)(=O)=O)ccc4OC(C)C)n3)cn2)CC1` [Example 57, 5-[2-(2-Isopropoxy-5-sulfamoyl-phenylamino)-thiazol-4-yl]-pyridine-2-carboxylic acid (1-ethyl-piperidin-4-yl)-amide.TFA], the IC50 in assay [1] is 240 nM. In assay [2], this molecule gave a dissociation constant Kd of 110 nM.

As to `CC(C)Oc1ccc(S(N)(=O)=O)cc1Nc1nc(-c2ccc(N3CCC(CO)CC3)nc2)cs1` [Example 79, 3-((4-(6-(4-(Hydroxymethyl)piperidin-1-yl)pyridin-3-yl)thiazol-2-yl)amino)-4-isopropoxybenzenesulfonamide.TFA], inhibition in assay [1] was half-maximal at 340 nM (IC50). For the same molecule, binding in assay [2] was put at a Kd of 150 nM.

Regarding `COC(=O)c1ccc(-c2csc(Nc3cc(S(N)(=O)=O)ccc3OC(C)C)n2)cn1` [Intermediate 12, 5-[2-(2-Isopropoxy-5-sulfamoyl-phenylamino)-thiazol-4-yl]-pyridine-2-carboxylic acid methyl ester.TsOH], in assay [1], the IC50 was > 20000 nM. In addition, in assay [3], the dissociation constant Kd was 410 nM.

Turning to `CC(C)Oc1ccc(S(N)(=O)=O)cc1Nc1nc(-c2ccc(N3CCCCC3)nc2)cs1` [Example 76, 4-Isopropoxy-3-((4-(6-(piperidin-1-yl)pyridin-3-yl)thiazol-2-yl)amino)benzenesulfonamide.TFA], in assay [1], the IC50 was > 20000 nM. Also, the Kd in assay [2] came out at 240 nM.
